In article PMC10674894 (Viruses, 2023):

How the values were obtained:
Vero cells = test: Cytotoxicity MTT assay in Vero cells (MNTD, CC50); type: cell-based, African green monkey
CHIKV DRDE-07 = test: In vitro screening against CHIKV (CPE inhibition and MTT cell viability); type: cell-based, chikungunya virus; details: for % Cell viability / CPE: Table S1, CHIKV-infected Vero cells; for % Cell viability: MTT assay; for CPE: arbitrary score of cytopathic effect at >48 hpi

O=C(O)c1ccc(/C=N/NC(=O)c2ccncc2)cc1 [DCR43, (E)-4-((2-isonicotinoylhydrazono)methyl)benzoic acid]
MNTD (Vero cells; Table S1, Vero cells): 31.25 µM | % Cell viability (CHIKV DRDE-07; 72 hpi): 16.82% | CPE (CHIKV DRDE-07): ++++ (>60% (++++))

COc1ccc(C2NC(=O)NC(C)=C2C(=O)OCC[N+](C)(C)C)cc1 (stereo not shown) [DCR107, {2‐[4‐(4‐methoxyphenyl)‐6‐methyl‐2‐oxo‐1,2,3,4‐tetrahydropyrimidine‐5‐carbonyloxy]ethyl}trimethylazanium]
MNTD (Vero cells; Table S1, Vero cells): 62.5 µM | % Cell viability (CHIKV DRDE-07; 72 hpi): 13.22% | CPE (CHIKV DRDE-07): ++++ (>60% (++++))

CCOc1ccc(/C=N/NC(=O)c2cccnc2)cc1OC [DCR17, (E)-N'-(4-ethoxy-3-methoxybenzylidene)nicotinohydrazide]
MNTD (Vero cells; Table S1, Vero cells): 31.25 µM | % Cell viability (CHIKV DRDE-07; 72 hpi): 0.1% | CPE (CHIKV DRDE-07): ++++ (>60% (++++))

O=C(NNC(=O)c1ccccc1Cl)c1cccnc1 [DCR5, N'-(2-chlorobenzoyl)nicotinohydrazide]
MNTD (Vero cells; Table S1, Vero cells): 31.25 µM | % Cell viability (CHIKV DRDE-07; 72 hpi): 13.49% | CPE (CHIKV DRDE-07): ++++ (>60% (++++))

COc1ccc(/C(=N\NC(=O)c2cccnc2)c2ccccc2)cc1 [DCR48, (Z)-N'-((4-methoxyphenyl)(phenyl)methylene)nicotinohydrazide]
MNTD (Vero cells; Table S1, Vero cells): 31.25 µM | % Cell viability (CHIKV DRDE-07; 72 hpi): 20.87% | CPE (CHIKV DRDE-07): ++++ (>60% (++++))

C#CCOC(=O)C1=C(C)NC(=O)NC1c1cccc(Cl)c1 (stereo not shown) [DCR89, prop-2-yn-1-yl 4-(3-chlorophenyl)-6-methyl-2-oxo-1,2,3,4-tetrahydropyrimidine-5-carboxylate]
MNTD (Vero cells; Table S1, Vero cells): 205.1 µM | % Cell viability (CHIKV DRDE-07; 72 hpi): 10.94% | CPE (CHIKV DRDE-07): ++++ (>60% (++++))

CC(=O)Cc1noc(-c2cccc([N+](=O)[O-])c2)n1 [DCR81, 1-[5-(3-nitrophenyl)-1,2,4-oxadiazol-3-yl]propan-2-one]
MNTD (Vero cells; Table S1, Vero cells): 125 µM | % Cell viability (CHIKV DRDE-07; 72 hpi): 0% | CPE (CHIKV DRDE-07): ++++ (>60% (++++))

CCOc1cc(-c2cc(-c3ccc(O)cc3)nn2C(=O)c2cccnc2)ccc1O [DCR59, 2-ethoxy-4-[3-(4-hydroxyphenyl)-1-(pyridine-3-carbonyl)-1H-pyrazol-5-yl]phenol]
MNTD (Vero cells; Table S1, Vero cells): 15.62 µM | % Cell viability (CHIKV DRDE-07; 72 hpi): 49.1% | CPE (CHIKV DRDE-07): +++ (60-50% (+++))

Fc1cccc(C2c3c(ccc4ccccc34)Oc3ccc4ccccc4c32)c1 [DCR119, 2‐(3‐fluorophenyl)‐13‐oxapentacyclo[12.8.0.0³,¹².0⁴,⁹.0¹⁷,²²]docosa‐1(14),3,5,7,9,11,15,17(22),18,20‐decaene]
MNTD (Vero cells; Table S1, Vero cells): 31.25 µM | % Cell viability (CHIKV DRDE-07; 72 hpi): 18.74% | CPE (CHIKV DRDE-07): ++++ (>60% (++++))

Brc1cc2c(c3ncccc13)Oc1ncccc1O2 [DCR 1, 5-bromo-7,12-dioxa-1,11-diaza-benzo[a]anthracene]
MNTD (Vero cells; Table S1, Vero cells): 50 µM | MNTD (Vero cells; maximum nontoxic dose in Vero cells, MTT): 50 µM | Cell Viability (CHIKV DRDE-07; CHIKV-infected Vero cells treated at MNTD, 72 hpi, MTT, cell control + DMSO = 100%): 72% | CPE (CHIKV DRDE-07): ++ (50-30% (++))

CC(=O)Cc1noc(-c2ccccc2)n1 [DCR78, 1-(5-phenyl-1,2,4-oxadiazol-3-yl)propan-2-one]
MNTD (Vero cells; Table S1, Vero cells): 125 µM | % Cell viability (CHIKV DRDE-07; 72 hpi): 17.32% | CPE (CHIKV DRDE-07): ++++ (>60% (++++))

CC1(C)CC(=O)C2=C(C1)OC1=C(C(=O)CC(C)(C)C1)C2c1ccc(Cl)cc1 [DCR122, 9‐(4‐chlorophenyl)‐3,3,6,6‐tetramethyl‐2,3,4,5,6,7,8,9‐octahydro‐1H‐xanthene‐1,8‐dione]
MNTD (Vero cells; Table S1, Vero cells): 31.25 µM | % Cell viability (CHIKV DRDE-07; 72 hpi): 11.09% | CPE (CHIKV DRDE-07): ++++ (>60% (++++))

O=C(NNC(=O)c1cccnc1)c1ccccc1 [DCR4, N'-benzoylnicotinohydrazide]
MNTD (Vero cells; Table S1, Vero cells): 31.25 µM | % Cell viability (CHIKV DRDE-07; 72 hpi): 15% | CPE (CHIKV DRDE-07): ++++ (>60% (++++))

CCOc1ccc(C2c3c(ccc4ccccc34)Oc3ccc4ccccc4c32)cc1 [DCR114, 2‐(4‐ethoxyphenyl)‐13‐oxapentacyclo[12.8.0.0³,¹².0⁴,⁹.0¹⁷,²²]docosa‐1(14),3,5,7,9,11,15,17(22),18,20‐decaene]
MNTD (Vero cells; Table S1, Vero cells): 31.25 µM | % Cell viability (CHIKV DRDE-07; 72 hpi): 4.05% | CPE (CHIKV DRDE-07): ++++ (>60% (++++))

CCOc1ccc(C2NC(=O)NC(C)=C2C(=O)OCCN(C)C)cc1 (stereo not shown) [DCR72, 2-(dimethylamino)ethyl 4-(4-ethoxyphenyl)-6-methyl-2-oxo-1,2,3,4-tetrahydropyrimidine-5-carboxylate]
MNTD (Vero cells; Table S1, Vero cells): 31.25 µM | % Cell viability (CHIKV DRDE-07; 72 hpi): 25.42% | CPE (CHIKV DRDE-07): ++++ (>60% (++++))

CC1=C(C(=O)OCC[N+](C)(C)C)C(c2ccc([N+](=O)[O-])cc2)NC(=O)N1 (stereo not shown) [DCR104, N,N,N-trimethyl-2-({[6-methyl-4-(4-nitrophenyl)-2-oxo-1,2,3,4-tetrahydropyrimidin-5-yl]carbonyl}oxy)ethanaminium]
MNTD (Vero cells; Table S1, Vero cells): 125 µM | % Cell viability (CHIKV DRDE-07; 72 hpi): 9.09% | CPE (CHIKV DRDE-07): ++++ (>60% (++++))

O=C(NNC(=O)c1ccc(Cl)cc1)c1ccncc1 [DCR11, N'-(4-chlorobenzoyl)isonicotinohydrazide]
MNTD (Vero cells; Table S1, Vero cells): 31.25 µM | % Cell viability (CHIKV DRDE-07; 72 hpi): 22.85% | CPE (CHIKV DRDE-07): ++++ (>60% (++++))

COc1ccc(C2c3c(ccc4ccccc34)Oc3ccc4ccccc4c32)cc1 [DCR113, 2‐(4‐methoxyphenyl)‐13‐oxapentacyclo[12.8.0.0³,¹².0⁴,⁹.0¹⁷,²²]docosa‐1(14),3,5,7,9,11,15,17(22),18,20‐decaene]
MNTD (Vero cells; Table S1, Vero cells): 31.25 µM | % Cell viability (CHIKV DRDE-07; 72 hpi): 5.04% | CPE (CHIKV DRDE-07): ++++ (>60% (++++))

O=C(NNC(=O)c1ccncc1)c1ccccc1 [DCR9, N'-benzoylisonicotinohydrazide]
MNTD (Vero cells; Table S1, Vero cells): 31.25 µM | % Cell viability (CHIKV DRDE-07; 72 hpi): 9.92% | CPE (CHIKV DRDE-07): ++++ (>60% (++++))

Cc1ccc(-c2cc(-c3ccc(O)cc3)nn2C(=O)c2cccnc2)cc1 [DCR56, 4-[5-(4-methylphenyl)-1-(pyridine-3-carbonyl)-1H-pyrazol-3-yl]phenol]
MNTD (Vero cells; Table S1, Vero cells): 31.25 µM | % Cell viability (CHIKV DRDE-07; 72 hpi): 24.2% | CPE (CHIKV DRDE-07): ++++ (>60% (++++))

C/C(=N\NC(=O)c1ccncc1)c1ccccc1O [DCR44, (E)-N'-(1-(2-hydroxyphenyl)ethylidene)isonicotinohydrazide]
MNTD (Vero cells; Table S1, Vero cells): 31.25 µM | % Cell viability (CHIKV DRDE-07; 72 hpi): 18.88% | CPE (CHIKV DRDE-07): ++++ (>60% (++++))

C/C(=N\NC(=O)c1cccnc1)c1ccccc1N [DCR46, (E)-2-(1-(2-nicotinoylhydrazono)ethyl)benzenaminium]
MNTD (Vero cells; Table S1, Vero cells): 31.25 µM | % Cell viability (CHIKV DRDE-07; 72 hpi): 27.31% | CPE (CHIKV DRDE-07): ++++ (>60% (++++))

C/C(=N\NC(=O)c1cccnc1)c1c(O)ccc2ccccc12 [DCR47, (E)-N'-(1-(2-hydroxynaphthalen-1-yl)ethylidene)nicotinohydrazide]
MNTD (Vero cells; Table S1, Vero cells): 31.25 µM | % Cell viability (CHIKV DRDE-07; 72 hpi): 6.42% | CPE (CHIKV DRDE-07): ++++ (>60% (++++))

CC1(C)CC(=O)C2=C(C1)OC1=C(C(=O)CC(C)(C)C1)C2c1ccc(C2C3=C(CC(C)(C)CC3=O)OC3=C2C(=O)CC(C)(C)C3)cc1 [DCR133, 3,3,6,6‐tetramethyl‐9‐[4‐(3,3,6,6‐tetramethyl‐1,8‐dioxo‐dodecahydro‐1H‐xanthen‐9‐yl)phenyl]‐2,3,4,5,6,7,8,9‐octahydro‐1H‐xanthene‐1,8‐dione]
MNTD (Vero cells; Table S1, Vero cells): 125 µM | % Cell viability (CHIKV DRDE-07; 72 hpi): 11.14% | CPE (CHIKV DRDE-07): ++++ (>60% (++++))

C/C(=N\NC(=O)c1ccncc1)c1ccccc1O [DCR49, (E)-N'-(1-(2-hydroxyphenyl)ethylidene)isonicotinohydrazide]
MNTD (Vero cells; Table S1, Vero cells): 62.5 µM | % Cell viability (CHIKV DRDE-07; 72 hpi): 48.9% | CPE (CHIKV DRDE-07): +++ (60-50% (+++))
